Measured values taken from patent publication US7060486B2, “Inhibition of sulfate-reducing-bacteria-mediated degradation using bacteria which secrete antimicrobials” (priority 1998, dated 2006).
“Also recorded” adds a separate entry of the source. Bridge positions count the residues as written; N and C are the ends. Square brackets hold non-standard residues; d marks the D form. Peptide text beside a SMILES is read from it. * marks the point of attachment. X1 = CC[C@H](C)CCCCC(=O)*; Dab = NCC[C@H](N)C(=O)O

Legend:
D. vulgaris (ATCC 29579) = test: SRB inhibitory assay: viability after one-hour exposure, MPN technique; type: cell-based; conditions: one-hour exposure
Experimental: (§1) D. vulgaris (ATCC 29579) and D. gigas (ATCC 19364) were obtained from the American Type Culture Collection and cultivated in 15 mL screwcap tubes with 10 mL of modified Baar's medium (ATCC medium 1249) supplemented with 100 μL each of the oxygen-scavengers 4% sodium sulfide and Oxyrase (Oxyrase Inc., Mansfeld, Ohio). Initial cultures were grown from −85° C. glycerol stocks; all subsequent cultures were grown with a 3% inoculum from the initial culture maintained at 30° C. without shaking. […] SRB were also cultured periodically in the presence of 0.1% ferrous ammonium sulfate, and the presence of these sulfate-reducers was confirmed by the detection of black iron sulfide in the culture tubes. The desulfoviridin assay was also performed after each MPN assay to confirm the presence of D. vulgaris or D. gigas by its red color under UV light due to the release of the chromophore of the pignment desulfoviridin. (Postgate, 1984).
(§2) For determining the viability indices (Romeo, et al., 1988) of SRB, a late-exponential phase culture (O.D600 0.16 to 0.19 which corresponded to an initial cell number of 5–9×10^4 cells/mL) was exposed to various concentrations of antimicrobials for 1 hour at 30° C. One mL of cells was harvested, washed once in fresh modified Baar's medium to remove cellular debris, and resuspended in 1 mL of fresh modified Baar's medium supplemented with 10 μL each of Oxyrase (Oxyrase Inc., Mansfeld, Ohio) and 4% sodium sulphide. Aliquots of 450 μL were dispensed in 500 μL sterile eppendorf tubes and appropriate amounts of antimicrobials added and incubated at 30° C. The effectiveness of treatment was determined by the multiple-tube most-probable-number (MPN) fermentation technique. (Anonymous. Multiple-tube fermentation technique for members of the coliform group, pp. 9–45 to 9–51. In A. E. Greenberg, L. S. Clesceri, and A. D. Eaton (eds.), Standard Methods for the Examination of Water and Wastewater, 18 ed. American Public Health Association, American Water Works Association, and Water Pollution Control Federation, New York (1992)) (hereafter, Greenberg, 1992).
(§3) The MPN test for enumerating SRB was performed in three 12 mL tubes with a 1000 μL inoculum of SRB, three 12 mL tubes with a 500 μL inoculum, and three 12 mL tubes with a 100 μL inoculum. All nine tubes contained a final volume of 10 mL of modified Baar's medium supplemented with 100 μL each of 4% sodium sulfide and Oxyrase (Oxyrase Inc., Mansfeld, Ohio). The tubes were monitored for 72 hours to determine the number of tubes that were positive for growth. Growth was determined by the increase in culture turbidity, and the MPN index/mL was calculated using the Thomas formula. (Greenberg 1992).

[1] = tested on: SRB (D. vulgaris) on SAE 1018 mild steel; test: Continuous reactor with SAE 1018 mild steel and SRB, electrochemical impedance spectroscopy
Excerpt: (§4) A continuous reactor was used to develop biofilms on metal surfaces as previously described (Jayaraman et al., 1997c). Electrochemical impedance spectroscopy (EIS) was used to obtain impedance data in at least duplicate experiments using a Solarton-Schlumberger electrochemical measurement unit (SI 1280, Schlumberger Technical Instruments Division, San Jose, Calif.) interfaced to a Macintosh computer (PowerMac 7100/80, Apple Computers, Cupertino, Calif.) running EISIS electrochemical experimentation software (University of California, Irvine) (THALES, a similar commercial software, can also be used). The open-circuit potential (OCP) was measured as the potential between the metal specimen and the reference electrode (Ag/AgCl), and the polarization resistance was determined as the dc limit of the impedance using the ANALEIS software developed by Mansfeld et al. (ASTM Special Technical Protocol 1154:186 (1992)). Continuous culture corrosion rates were estimated from the experimental polarization resistance Rp based on the Stern-Geary equation Rp=B/Icorr, where B is a parameter depending on the Tafel slopes and icorr is the corrosion current density which can be converted into a corrosion rate using Faraday's law (Mansfeld, F., The polarization resistance technique for measuring corrosion currents, In Fontana, M. G., Staehle, R. W. (ed.), Advances in Corrosion Science and Technology, Plenum Press, New York (1976)).
A 3% (vol/vol) SRB inoculum (culture age 24–48 hours) was added to the reactor after 3 to 5 days of aerobic biofilm development. […] All antimicrobials were simultaneously added to the nutrient feed and the reactor at appropriate concentrations.

D. vulgaris [2] = test: Susceptibility of SRB cultures to antibiotics and inorganics; type: cell-based
Experimental: (§5) D. vulgaris and D. gigas were incubated in the presence of various antimicrobial peptides, and their viability after one-hour exposure was determined. […] D. gigas was inhibited by anthraquinone at 100 μg/mL (Cooling et al., 1996), and both SRB were inhibited by sodium molybdate at 100 μg/mL. This is similar to the observation of Saleh, et al., 1964, who surveyed nearly 200 compounds for their SRB-inhibitory activity and noted that SRB show a high degree of resistance to inhibitory compounds (Id.).

[3] = tested on: SRB (D. vulgaris) on 304 stainless steel; test: Continuous reactor with 304 stainless steel and SRB, electrochemical impedance spectroscopy
Experimental: Batch culture corrosion experiments using SAE 1018 mild steel coupons (2.5 cm diameter, 1.2 mm thick) were performed in triplicates in 250 mL Erlenmeyer flasks at 30° C. without shaking as described previously (Jayaraman et al., 1997a). A continuous reactor (Jayaraman et al., 1997c) was also used to develop biofilms on 304 stainless steel and monitor corrosion using electrochemical impedance spectroscopy (EIS) in a minimum of two independent reactors using a Solarton-Schlumberger electrochemical measurement unit (SI 1280, Schlumberger Technical Instruments Division, San Jose, Calif.) interfaced to a Macintosh computer (PowerMac 7100/80, Apple Computers, Cupertino, Calif.) running EISIS electrochemical experimentation software (University of California, Irvine) (similar commercial software, THALES, can also be used). The open circuit potential (OCP) was measured as the potential between the metal specimen and a Ag/AgCl reference electrode, and the polarization resistance (Rp) was determined as the low-frequency value of the impedance (where the imaginary part of the impedance was zero or negligible). Continuous culture corrosion rates were estimated as the inverse of the polarization resistance (Macdonald, D. D. and M. C. H. McCubre, Applications of impedance spectroscopy, p. 262–267. In J. R. Macdonald (ed.), Impedance spectroscopy: Emphasizing solid materials and systems, John Wiley & Sons, New York (1987); Stem, M., Journal of Electrochemical Society, 105(11):638–647 (1958)).
as §4, with “Continuous culture corrosion rates were estimated from the experimental polarization resistance Rp based on the Stern-Geary equation Rp=B/Icorr, where B is a parameter depending on the Tafel slopes and icorr is the corrosion current density which can be converted into a corrosion rate using Faraday's law (Mansfeld, F., The polarization resistance technique for measuring corrosion currents, In Fontana, M. G., Staehle, R. W. (ed.), Advances in Corrosion Science and Technology, Plenum Press, New York (1976)).” left out

D. vulgaris [4] = conditions: literature (Saleh 1964/Postgate 1984; Odom and Singleton 1993), suspension cultures; cited from earlier work
P. fragi K = test: Growth of P. fragi K in overnight suspension cultures with antimicrobials; type: cell-based; conditions: 100 μg/mL, overnight suspension culture
D. gigas = test: Susceptibility of SRB cultures to antibiotics and inorganics; type: cell-based
Experimental: as §5

B. subtilis WB600 = test: Susceptibility of host strains to purified antimicrobials (plate counts); type: cell-based; conditions: 50 μg/mL, one hour exposure at 30° C.
Escherichia coli = conditions: 100 μg/mL; cited from earlier work
B. subtilis BE1500 = test: Susceptibility of host strains to purified antimicrobials (plate counts); type: cell-based
Experimental: (§6) To determine the susceptibility of the hosts B. subtilis BE1500 and B. polymyxa to the expressed antimicrobials, these strains were grown from a single colony in 25 mL of LB medium with shaking at 37° C. to an O.D600 of 0.40–0.45. One mL aliquots were collected, washed with fresh LB medium and resuspended in 100 μL fresh LB medium in sterile eppendorf tubes. The antimicrobials indolicidin and bactenecin were added (50–100 μg/mL) and the tubes were incubated at 30° C. for one hour without shaking. Appropriate dilutions were spread on LB agar plates and incubated overnight at 37° C. to determine the extent of survival. The results were confirmed by performing two independent experiments.

B. polymyxa 10401 = test: as above; type: cell-based; conditions: 50 μg/mL, one hour exposure at 30° C.
Experimental: as §6

D. gigas (ATCC 19364) = test: SRB inhibitory assay: viability after one-hour exposure, MPN technique; type: cell-based; conditions: 100 μg/mL, one-hour exposure
Experimental: as §1, §2, §3

[5] = 100 μg/mL added to P. fragi K biofilm 24 hours before D. vulgaris
[6] = 100 μg/mL added to P. fragi K biofilm before D. vulgaris

Molecule: CC[C@H](C)[C@H](N)C(=O)N[C@@H](CC(C)C)C(=O)N1CCC[C@H]1C(=O)N[C@@H](Cc1c[nH]c2ccccc12)C(=O)N[C@@H](CCCCN)C(=O)N[C@@H](Cc1c[nH]c2ccccc12)C(=O)N1CCC[C@H]1C(=O)N[C@@H](Cc1c[nH]c2ccccc12)C(=O)N[C@@H](Cc1c[nH]c2ccccc12)C(=O)N1CCC[C@H]1C(=O)N[C@@H](Cc1c[nH]c2ccccc12)C(=O)N[C@@H](CCCN=C(N)N)C(=O)N[C@@H](CCCN=C(N)N)C(N)=O [Ind-NH2, indolicidin]
- reduction of viability (D. vulgaris (ATCC 29579); 25 μg/mL, late-exponential-phase culture): 99.3%

Molecule: CC1(C)S[C@@H]2[C@H](NC(=O)[C@H](N)c3ccccc3)C(=O)N2[C@H]1C(=O)O [ampicillin]
- effect on D. vulgaris, in words [1, 5]: completely inhibited
- time after D. vulgaris addition without change / increase in Rp [1, 6]: ≥ 100 h
- effect on SRB, in words ([1]; antimicrobial added after SRB growth on mild steel): did not change Rp; also recorded: no inhibition of SRB
- time to onset of SRB-induced corrosion after ampicillin containing medium was discontinued ([1]; mild steel reactors): ≤ 36 h
- concentration that inhibits the strain (D. vulgaris [2]): 20 µg/mL
- effect on D. vulgaris, in words [3, 5]: completely inhibited
- time after D. vulgaris addition without change in impedance spectra and Rp [3, 6]: ≥ 100 h
- effect on SRB, in words ([3]; antimicrobial added to dual-culture reactor after SRB, ampicillin 200 μg/mL, chloramphenicol 100 μg/mL, ammonium molybdate 200 μg/mL): SRB had not been killed
- concentration that inhibits D. vulgaris (D. vulgaris [4]): 1 µg/mL
- growth of P. fragi K, in words (P. fragi K): grew to saturation

Molecule: O=C1c2ccccc2C(=O)c2ccccc21 [anthraquinone]
- concentration that inhibits the strain (D. gigas): 100 µg/mL

Molecule: CC[C@H](C)[C@@H]1NC(=O)[C@H](CCCNC(=N)N)NC(=O)[C@@H](NC(=O)[C@H](CC(C)C)NC(=O)[C@@H](N)CCCNC(=N)N)CSSC[C@@H](C(=O)N[C@@H](CCCNC(=N)N)C(=O)O)NC(=O)[C@H](C(C)C)NC(=O)[C@H](CCCNC(=N)N)NC(=O)[C@H]([C@@H](C)CC)NC(=O)[C@H](C(C)C)NC(=O)[C@H](C(C)C)NC1=O [bactenecin] (H-RLCRIVVIRVCR-OH; disulfide 3-11; N-terminus and C-terminus assumed)
- Fold-reduction in cell number (B. subtilis WB600): 400
- inhibition (Escherichia coli): 95%
- factor by which the strain is more resistant to bactenecin than to indolicidin (B. subtilis BE1500): 60
- Fold-reduction in cell number (B. subtilis BE1500; 50 μg/mL, one hour exposure at 30° C.): 100
- Fold-reduction in cell number (B. polymyxa 10401): 2

Molecule: O=C(N[C@H](CO)[C@H](O)c1ccc([N+](=O)[O-])cc1)C(Cl)Cl [chloramphenicol]
- concentration that inhibits the strain (D. vulgaris [2]): 20 µg/mL
- concentration that inhibits D. vulgaris (D. vulgaris [4]): 3 µg/mL

Molecule: CC[C@H](C)CCCCC(=O)N[C@@H](CCN)C(=O)N[C@H](C(=O)N[C@@H](CCN)C(=O)N[C@H]1CCNC(=O)[C@H]([C@@H](C)O)NC(=O)[C@H](CCN)NC(=O)[C@H](CCN)NC(=O)[C@H](CC(C)C)NC(=O)[C@@H](Cc2ccccc2)NC(=O)[C@H](CCN)NC1=O)[C@@H](C)O [polymyxin B] (X1-[Dab]T[Dab][Dab][Dab][dF]L[Dab][Dab]T; lactam 4-C (inferred); N-terminus assumed)
- concentration that inhibits D. vulgaris (D. vulgaris [4]): 100 µg/mL
- reduction of viability (D. vulgaris (ATCC 29579); 100 μg/mL): approximately 90%
- reduction of viability (D. gigas (ATCC 19364)): approximately 90%

Molecule: [Na+].[Na+].[O]=[Mo](=[O])([O-])[O-] [sodium molybdate]
- concentration that inhibits the strain (D. gigas): 100 µg/mL
- concentration that inhibits the strain (D. vulgaris [2]): 100 µg/mL

Molecule: gramicidin D
- reduction of viability (D. vulgaris (ATCC 29579); 100 μg/mL): approximately 90%
- reduction of viability (D. gigas (ATCC 19364)): approximately 90%
